Columns and labels:
[1] = Pharmacokinetics after administration of the subject combination; conditions: for AUC0-12 relative to that of bupropion / Cmax relative to peak level of bupropion: metabolite vs bupropion, after the subject combination
plasma protein = test: Plasma protein binding; type: in vitro ADME; conditions: metabolite vs bupropion
[2] = Effect of CYP2D6 poor metabolizer status on pharmacokinetics of the tablet (Group 3); conditions: compared to patients who are not CYP2D6 poor metabolizers
[3] = Food effect on pharmacokinetics of the subject combination; conditions: subject combination administered with food

## C[C@H]1NC(C)(C)CO[C@]1(O)c1cccc(Cl)c1 [hydroxybupropion]
[1]
  AUC0-12 relative to that of bupropion: about 19 times
  Cmax relative to peak level of bupropion: approximately 14 times

## C[C@H](NC(C)(C)C)[C@@H](O)c1cccc(Cl)c1 [threohydroxybupropion]
Plasma protein
  extent of protein binding compared with bupropion: about half that seen with bupropion
[1]
  AUC0-12 relative to that of bupropion: about 7 times
  Cmax relative to peak level of bupropion: about 5 times

## COc1ccc2c(c1)[C@]13CCCC[C@@H]1[C@H](C2)N(C)CC3 [dextromethorphan]
[2]
  plasma concentrations in CYP2D6 poor metabolizers: increases plasma concentrations
[3]
  AUC0-12 decrease with food: 14%
[1]; 8 days of subject combination in extensive metabolizers, compared to dextromethorphan given without bupropion
  increase of mean elimination half-life: approximately 3 fold
[1]; co-administered with bupropion
  pharmacokinetics at steady state (linearity): nonlinear pharmacokinetics
[1]; varying doses of bupropion (75 to 150 mg), co-administered with bupropion
  changes in AUC and Cmax at steady state with dose: less than dose-proportional changes
[1]; varying doses of dextromethorphan (30 to 60 mg), co-administered with bupropion
  changes in AUC and Cmax at steady state with dose: greater than dose-proportional changes

## CC(NC(C)(C)C)C(=O)c1cccc(Cl)c1 (racemic) [bupropion]
[1]; human, plasma, oral
  mean elimination half-life: 15 h

## CC(NC(C)(C)C)C(O)c1cccc(Cl)c1 (centres unmarked) [erythrohydroxybupropion]
[1]
  AUC0-12 relative to that of bupropion: about 1.2 times
  Cmax relative to peak level of bupropion: approximately equal to
